# PubChem BioAssay (NCI)
#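 Method: 48-hour compound exposure of cells in 96-well plates, five concentrations, linear interpolation of endpoints. Here, GI50 denotes the concentration required for 50% inhibition of growth. TGI is the concentration that stops growth completely.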
# Experiments:
# Test in all cases: growth of human tumour cells (NCI), 48 h
# NCI-H226 lung = tested on: NCI-H226 lung
# NCI-H23 lung = tested on: NCI-H23 lung
# NCI-H460 lung = tested on: NCI-H460 lung
# NCI-H522 lung = tested on: NCI-H522 lung
# NCI/ADR-RES ovarian = tested on: NCI/ADR-RES ovarian
# OVCAR-3 ovarian = tested on: OVCAR-3 ovarian
# OVCAR-4 ovarian = tested on: OVCAR-4 ovarian
# OVCAR-5 ovarian = tested on: OVCAR-5 ovarian
# OVCAR-8 ovarian = tested on: OVCAR-8 ovarian
# PC-3 prostate = tested on: PC-3 prostate
# RPMI-8226 leukemia = tested on: RPMI-8226 leukemia
# RXF 393 renal = tested on: RXF 393 renal
# SF-268 CNS = tested on: SF-268 CNS
# SF-295 CNS = tested on: SF-295 CNS
# SF-539 CNS = tested on: SF-539 CNS
# SK-MEL-2 melanoma = tested on: SK-MEL-2 melanoma
# SK-MEL-28 melanoma = tested on: SK-MEL-28 melanoma
# SK-MEL-5 melanoma = tested on: SK-MEL-5 melanoma
# SK-OV-3 ovarian = tested on: SK-OV-3 ovarian
# SN12C renal = tested on: SN12C renal
# SNB-19 CNS = tested on: SNB-19 CNS
# SNB-75 CNS = tested on: SNB-75 CNS
# SR leukemia = tested on: SR leukemia
# SW-620 colon = tested on: SW-620 colon
# T-47D breast = tested on: T-47D breast
# TK-10 renal = tested on: TK-10 renal
# U251 CNS = tested on: U251 CNS
# UACC-257 melanoma = tested on: UACC-257 melanoma
# UACC-62 melanoma = tested on: UACC-62 melanoma
# UO-31 renal = tested on: UO-31 renal
structure (smiles),measurement,setting,value
COc1ccccc1NC(=O)N/N=C/c1c[nH]c2ccccc12,TGI,NCI-H226 lung,23 µM
same,GI50,NCI-H23 lung,1.45 µM
same,TGI,NCI-H23 lung,10.8 µM
same,GI50,NCI-H460 lung,0.961 µM
same,TGI,NCI-H460 lung,12.6 µM
same,GI50,NCI-H522 lung,0.177 µM
same,TGI,NCI-H522 lung,0.428 µM
same,GI50,NCI/ADR-RES ovarian,0.299 µM
same,TGI,NCI/ADR-RES ovarian,1.31 µM
same,GI50,OVCAR-3 ovarian,0.451 µM
same,TGI,OVCAR-3 ovarian,5.47 µM
same,GI50,OVCAR-4 ovarian,4.34 µM
same,TGI,OVCAR-4 ovarian,19.9 µM
same,GI50,OVCAR-5 ovarian,2.72 µM
same,TGI,OVCAR-5 ovarian,15.5 µM
same,GI50,OVCAR-8 ovarian,2.12 µM
same,TGI,OVCAR-8 ovarian,13.9 µM
same,GI50,PC-3 prostate,1.6 µM
same,TGI,PC-3 prostate,14.7 µM
same,GI50,RPMI-8226 leukemia,1.39 µM
same,TGI,RPMI-8226 leukemia,6.09 µM
same,GI50,RXF 393 renal,1.66 µM
same,TGI,RXF 393 renal,6.45 µM
same,GI50,SF-268 CNS,3.06 µM
same,TGI,SF-268 CNS,20.6 µM
same,GI50,SF-295 CNS,0.816 µM
same,TGI,SF-295 CNS,5.9 µM
same,GI50,SF-539 CNS,0.704 µM
same,TGI,SF-539 CNS,2.86 µM
same,GI50,SK-MEL-2 melanoma,0.67 µM
same,TGI,SK-MEL-2 melanoma,4.92 µM
same,GI50,SK-MEL-28 melanoma,1.57 µM
same,TGI,SK-MEL-28 melanoma,17.6 µM
same,GI50,SK-MEL-5 melanoma,1.04 µM
same,TGI,SK-MEL-5 melanoma,5.52 µM
same,GI50,SK-OV-3 ovarian,2.48 µM
same,TGI,SK-OV-3 ovarian,15.4 µM
same,GI50,SN12C renal,1.1 µM
same,TGI,SN12C renal,12.1 µM
same,GI50,SNB-19 CNS,2.58 µM
same,TGI,SNB-19 CNS,16.1 µM
same,GI50,SNB-75 CNS,3.43 µM
same,TGI,SNB-75 CNS,20.9 µM
same,GI50,SR leukemia,0.215 µM
same,TGI,SR leukemia,12.4 µM
same,GI50,SW-620 colon,0.479 µM
same,TGI,SW-620 colon,18.5 µM
same,GI50,T-47D breast,1.04 µM
same,TGI,T-47D breast,> 100 µM
same,GI50,TK-10 renal,4.73 µM
same,TGI,TK-10 renal,23.8 µM
same,GI50,U251 CNS,1.45 µM
same,TGI,U251 CNS,12.5 µM
same,GI50,UACC-257 melanoma,10.7 µM
same,TGI,UACC-257 melanoma,34.8 µM
same,GI50,UACC-62 melanoma,0.473 µM
same,TGI,UACC-62 melanoma,12.5 µM
same,GI50,UO-31 renal,3.28 µM
same,TGI,UO-31 renal,18.4 µM
